# Data taken from patent US20260092074A1, “Annelated Pyridines as Steroidogenesis Inhibitors, Preparation Method and Use Thereof” (Guangzhou Vinnocent Pharmaceutical Limited, priority 2022, published 2026).
# Tests used:
# human CYP11B2 = target: T1, human CYP11B2 (Homo sapiens, UniProt P19099); experiment: Inhibition of hCYP11B2 in transfected V79 cells; assay type: cell-based; conditions: hamster V79 cells expressing human CYP11B2; substrate 11-deoxycorticosterone 200 nM
# T1 construct: expressed in transfected cells
# T1 sequence (P19099 25-503): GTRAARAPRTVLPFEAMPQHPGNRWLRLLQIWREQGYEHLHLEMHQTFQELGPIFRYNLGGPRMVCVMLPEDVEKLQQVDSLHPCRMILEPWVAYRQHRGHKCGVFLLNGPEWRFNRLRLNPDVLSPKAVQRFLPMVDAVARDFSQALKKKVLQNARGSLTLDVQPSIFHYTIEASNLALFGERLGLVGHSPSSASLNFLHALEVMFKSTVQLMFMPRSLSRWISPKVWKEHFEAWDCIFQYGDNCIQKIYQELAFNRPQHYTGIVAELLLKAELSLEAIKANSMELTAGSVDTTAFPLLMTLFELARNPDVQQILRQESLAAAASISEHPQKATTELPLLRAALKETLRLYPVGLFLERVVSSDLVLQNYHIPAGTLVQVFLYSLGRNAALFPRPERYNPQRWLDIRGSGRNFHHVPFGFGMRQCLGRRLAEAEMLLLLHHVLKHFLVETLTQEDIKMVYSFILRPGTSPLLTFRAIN
# In short: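 Hamster V79 cells stably co-expressing human CYP11B2 and rat NADPH-P450 reductase were pre-incubated with compounds for 2 hours, then given 200 nM 11-deoxycorticosterone for 30 minutes before ethyl acetate quench. Substrate and product were quantified by LC-MS/MS or HPLC at 260 nm, and IC50 was derived from percent inhibition.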
# human CYP11B1 = target: T2, human CYP11B1 (Homo sapiens, UniProt P15538); experiment: Inhibition of hCYP11B1 in transfected V79 cells; assay type: cell-based; conditions: hamster V79 cells expressing human CYP11B1; substrate 11-deoxycortisol 200 nM
# T2 construct: expressed in transfected cells
# T2 sequence (P15538 25-503): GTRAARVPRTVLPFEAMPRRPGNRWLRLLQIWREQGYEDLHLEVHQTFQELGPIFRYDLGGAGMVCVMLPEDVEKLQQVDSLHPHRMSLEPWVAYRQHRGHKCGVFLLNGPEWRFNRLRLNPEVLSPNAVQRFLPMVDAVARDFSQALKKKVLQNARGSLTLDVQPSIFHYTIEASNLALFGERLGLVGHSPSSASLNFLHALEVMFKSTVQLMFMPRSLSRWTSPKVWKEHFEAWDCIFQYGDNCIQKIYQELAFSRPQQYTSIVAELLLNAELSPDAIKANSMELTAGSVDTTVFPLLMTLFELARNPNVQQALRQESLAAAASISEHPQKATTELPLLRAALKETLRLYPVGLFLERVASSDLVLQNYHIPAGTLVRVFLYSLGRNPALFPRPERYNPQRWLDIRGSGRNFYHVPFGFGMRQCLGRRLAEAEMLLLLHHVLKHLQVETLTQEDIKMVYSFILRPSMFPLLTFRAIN
# In short: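 V79 hamster cells stably expressing human CYP11B1 and rat NADPH-P450 reductase were preincubated with compounds for 2 h. 11-Deoxycortisol (200 nM) was then added as substrate for 30 min before ethyl acetate quench. Substrate and product were quantified by LC-MS/MS or HPLC at 260 nm, and IC50 was derived from percent inhibition.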
SMILES,IC50 (human CYP11B2),IC50 (human CYP11B1)
"COc1ccc(C(=O)N2CC(S(=O)(=O)N3CCOc4c(-c5ccc(C#N)cc5)cncc43)C2)cc1 [O113, 4-(4-((1-(4-Methoxybenzoyl)azetidin-3-yl)sulfonyl)-3,4-dihydro-2H-pyrido[4,3-b][1,4]oxazin-8-yl)benzonitrile]",3 nM,97 nM
"O=C(c1ccc(F)cc1)n1ccc2c(-c3cc4ccccc4o3)cncc21 [E32, (4-(Benzofuran-2-yl)-1H-pyrrolo[2,3-c]pyridin-1-yl)(4-fluorophenyl)methanone]",13 nM,269 nM
"N#Cc1ccc(-c2cncc3c2OCCN3S(=O)(=O)c2cccc3cccnc23)cc1 [O15, 4-(4-(Quinolin-8-ylsulfonyl)-3,4-dihydro-2H-pyrido[4,3-b][1,4]oxazin-8-yl)benzonitrile]",0.25 nM,1.46 nM
"COc1ccc(S(=O)(=O)N2CCSc3c(-c4ccc(C#N)c(F)c4)cncc32)cc1 [S35, 2-Fluoro-4-(4-((4-methoxyphenyl)sulfonyl)-3,4-dihydro-2H-pyrido[4,3-b][1,4]thiazin-8-yl) benzonitrile]",0.12 nM,0.35 nM
"O=C(c1ccc(F)cc1)n1ccc2c(-c3ccc4nccn4c3)cncc21 [E37, (4-Fluorophenyl)(4-(imidazo[1,2-a]pyridin-6-yl)-1H-pyrrolo[2,3-c]pyridin-1-yl)methanone]",0.6 nM,455 nM
"N#Cc1ccc(-c2cncc3c2OCCN3C(=O)CCc2ccc(C(F)(F)F)cc2)cc1 [O53, 4-(4-(3-(4-(Trifluoromethyl)phenyl)propanoyl)-3,4-dihydro-2H-pyrido[4,3-b][1,4]oxazin-8-yl)benzonitrile]",8.2 nM,55 nM
"N#CN1CC=C(c2cncc3c2OCCN3C(=O)C2CN(Cc3cccc(F)c3)C2)CC1 [O97, 4-(4-(1-(3-Fluorobenzyl)azetidine-3-carbonyl)-3,4-dihydro-2H-pyrido[4,3-b][1,4]oxazin-8-yl)-3,6-dihydropyridine-1 (2H)-carbonitrile]",35 nM,219 nM
